Laboratory results taken from patent publication US20060177430A1, “Treatment of ocular disorders with ophthalmic formulations containing methylsulfonylmethane as a transport enhancer” (Chakshu Research Inc, priority 2002, published 2006).
Values joined by “and” are separate entries in the source; they are usually repeats but may differ in a detail not shown here. Equal entries are not always repeated.

Columns and labels:
[1] = EDTA pharmacokinetic study: 14C-EDTA in structures of the rat eye (Example 25)
Method: Objectives. Determine the amount of C-14 labeled EDTA that penetrates into the various structures of the rat eye (cornea, aqueous humor, lens, vitreous, and retina), using eye drops that contain MSM. Carry out a comparison of two different eye drop formulations that differed in their EDTA concentration.
8 μl of Eye Drop 1 was applied to the rats' eyes. […] The eyeballs were quickly washed 6 times in 5 ml of saline each time. Aqueous humor was aspirated from both eyes and dispensed in 50 μl of PBS. Cornea, lens, vitreous and retina from each eye were separated and placed in Eppendorf tubes containing H2O and 10N NaOH in the following ratio:
8 μl of Eye Drop 2 was applied to the rat eye. After 0.5, 2 and 4 hours, the rats were sacrificed and the experiment conducted in the same way as for Eye Drop 1.

in vivo = assay: in vivo
Method: The ocular pharmacokinetic behavior of EDTA, when administered as a component of Formulation 1, was evaluated in rabbits over a period of five days. Two healthy male rabbits, each approximately 2.5 to 3 kg in body weight, were used for the study.
On day 1 of the study, one drop of Formulation 1 was topically instilled in each eye of both rabbits (four eyes total). No additional eye drops were administered during the course of the study. Samples of aqueous humor were extracted at 15 min, 30 min, 1 hr, 4 hrs, 3 days, and 5 days following administration (as indicated in the following table). Vitreous humor was extracted at 5 days following administration from all four eyes. The concentration of EDTA was measured in all the samples of aqueous humor and vitreous humor by HPLC analysis.
In the following in vivo experiment, the ocular pharmacokinetic behavior of EDTA, when administered with MSM as permeation enhancing penetrating agent, was evaluated in rabbits over a period of five days. Two healthy male rabbits, each approximately 2.5 to 3 Kg in body weight, were used for the study.
An eye drop formulation of the invention, was prepared as follows: High purity de-ionized (DI) water (500 ml) was filtered via a 0.2 micron filter. MSM (27 g), EDTA (13 g), and L-carnosine (5 g) were added to the filtered DI water, and mixed until visual transparency was achieved, indicating dissolution. The mixture was poured into 10 ml bottles each having a dropper cap. On a weight percent basis, the eye drops had the following composition: […]

[2] = in the absence of MSM
[3] = not told
Description: (§1) The same study design and experimental setup was used as described in the above experiments.

rat lens organ culture = assay: Oxidation-induced toxicity in rat lens organ culture (Example 26); format: cell-based; details: 7 days
Description: Materials. […] All cell culture medium components were from Invitrogen. Animals. […] Lens Culture. The rat lenses were dissected and washed with 1% penicillin/streptomycin in sterile PBS. […] The lenses were visualized under a Nikon Eclipse 200 and photographs were taken using a Multidimensional Imaging System. [table] Experimental Procedure. 1. Sacrificed seven rats, removed the eyeballs as soon as possible, and put them into a tube containing PBS with 0.1% gentamicin. 2. Dissected the lenses immediately and washed with PBS. 3. […] Each treatment was performed in 2 wells. Final concentrations for the six treatments were as follows: […] After 7 days of lens culture, took photographs and determined level of light transparency through the lenses.

[4] = @ 79° F.; cited from earlier work
[5] = test system: Human lens epithelial cells (HLEC); assay: Cell viability following oxidation-induced toxicity in human lens epithelial cells (Example 27); format: cell-based; details: oxidants, 16 hrs; 4 mM MSM, 0.5 mM EDTA
Method: Materials. […] All cell culture medium components were from Invitrogen. Cell Culture and Treatment. […] Cell Viability. Cell survival was determined by Trypan Blue staining and counting with a hemocytometer. Dead cells stain blue, while live cells exclude Trypan Blue. Cell viability is represented as the number of live cells divided by the total number of cells, expressed as a percentage. [[[…]]] Experimental Procedure. 1. Seeded 0.5×10^5/ml of HLEC (Passage 5) into three 12-well plates, incubated at 37° C. for overnight. 2. […] Added the oxidation reagents and MSM and/or EDTA to the proper wells. […] Ferrous ammonium sulfate (FAS) 10 μM, ADP 100 μM, H2O2 100 μM • Fenton': FAS 10 μM, ADP 100 μM, H2O2 100 μM • Ferric Chloride: […]

[6] = 54 mg MSM/ml
Description: as §1

[7] = 5 days after one drop of Formulation 1, per rabbit eye

O=C(O)CN(CCN(CC(=O)O)CC(=O)O)CC(=O)O [EDTA, ethylenediamine tetraacetic acid]
dose dependency of nanograms of EDTA in eye structures ([1]; Eye Drop 1 (60.5 mM EDTA) versus Eye Drop 2 (12.5 mM EDTA)): Dose dependency was observed, particularly in the aqueous humor, the cornea, and the lens | distribution among eye structures ([1]; Eye Drop 1, two-hour time point): The majority of the EDTA was found in the aqueous humor | Concentration of EDTA, aqueous humor (in vivo; 3 days after one drop of Formulation 1, per rabbit eye): 0.4 micrograms per milliliter and 0.7 micrograms per milliliter | Concentration of EDTA, aqueous humor (in vivo; [7]): 0.5 micrograms per milliliter and 0.4 micrograms per milliliter | Concentration of EDTA, vitreous humor (in vivo; [7]): 0.5 micrograms per milliliter and 0.7 micrograms per milliliter | concentration at 15 min (in vivo; male, rabbit, aqueous humor, topical, 1 drop of Formulation 1 per eye, Concentration of EDTA, aqueous humor, 15 min after one drop of Formulation 1, per rabbit eye, HPLC): 1300 ng/mL | concentration at 30 min (in vivo; male, rabbit, aqueous humor, topical, 1 drop of Formulation 1 per eye, Concentration of EDTA, aqueous humor, 30 min after one drop of Formulation 1, per rabbit eye): 10700 ng/mL | concentration at 1 hr (in vivo; male, rabbit, aqueous humor, topical, 1 drop of Formulation 1 per eye, Concentration of EDTA, aqueous humor, 1 hr after one drop of Formulation 1, per rabbit eye): 5300 ng/mL | concentration at 4 hrs (in vivo; male, rabbit, aqueous humor, topical, 1 drop of Formulation 1 per eye, Concentration of EDTA, aqueous humor, 4 hrs after one drop of Formulation 1, per rabbit eye): 900 ng/mL | concentration at 3 days (in vivo; male, rabbit, aqueous humor, topical, 1 drop of Formulation 1 per eye, Concentration of EDTA, aqueous humor, 3 days after one drop of Formulation 1, per rabbit eye): 500 ng/mL | concentration at 5 days (in vivo; male, rabbit, aqueous humor, topical, 1 drop of Formulation 1 per eye, Concentration of EDTA, aqueous humor, 5 days after one drop of Formulation 1, per rabbit eye): 600 ng/mL | concentration at 30 min (in vivo; male, rabbit, aqueous humor, topical, 1 drop of Formulation 1 per eye, concentration of EDTA in aqueous humor, 30 minutes following administration of Formulation 1): 10700 ng/mL | concentration at 5 days (in vivo; male, rabbit, vitreous humor, topical, 1 drop of Formulation 1 per eye, Concentration of EDTA, vitreous humor, 5 days after one drop of Formulation 1, per rabbit eye): 600 ng/mL | amount present in the aqueous humor [2]: very little

NCCC(=O)N[C@@H](Cc1cnc[nH]1)C(=O)O [L-carnosine]
increase of permeation over control [3]: about 2.5%

CS(C)(=O)=O [MSM, methylsulfonylmethane]
Light transmission through the lens, of control (rat lens organ culture; 1 mM ascorbate + 100 μM hydrogen peroxide, oxidant alone 32%, 4 mM MSM, 0.5 mM EDTA): 57% | Light transmission through the lens, of untreated control (rat lens organ culture; 50 mM glucose, glucose alone 45%, 4 mM MSM, 0.5 mM EDTA): 68% | lens opacification in photographs of the lens culture (rat lens organ culture; glucose or ascorbate plus hydrogen peroxide): mitigated lens opacification by both oxidants | water solubility [4]: 34 % w/v | percent cell viability (Trypan Blue) [5]: increased the percent cell viability for all oxidants

N[C@@H](CCC(=O)N[C@@H](CS)C(=O)NCC(=O)O)C(=O)O [glutathione]
effect of MSM on the diffusion rate [6]: no effect
